The target of this assay is Casein kinase I isoform gamma-3 (Homo sapiens) (UniProt Q9Y6M4). The experiment in a line: PubChem AID 1671212. As to conditions: Z'-LYTE FRET peptide phosphorylation, recombinant CSNK1G3.
Chain of Casein kinase I isoform gamma-3 (Homo sapiens) (Q9Y6M4 whole entry, looked up, canonical isoform): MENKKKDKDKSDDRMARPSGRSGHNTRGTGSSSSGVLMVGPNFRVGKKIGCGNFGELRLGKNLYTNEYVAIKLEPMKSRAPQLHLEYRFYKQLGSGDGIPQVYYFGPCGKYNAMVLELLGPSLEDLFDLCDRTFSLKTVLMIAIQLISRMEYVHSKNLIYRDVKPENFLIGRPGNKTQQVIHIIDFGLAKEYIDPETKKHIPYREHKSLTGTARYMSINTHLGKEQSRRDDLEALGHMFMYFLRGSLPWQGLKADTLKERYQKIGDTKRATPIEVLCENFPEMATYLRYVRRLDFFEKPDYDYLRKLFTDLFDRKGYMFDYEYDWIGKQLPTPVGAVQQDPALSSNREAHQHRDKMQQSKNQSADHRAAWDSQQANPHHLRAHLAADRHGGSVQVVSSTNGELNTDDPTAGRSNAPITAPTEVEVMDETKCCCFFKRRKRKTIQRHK

Regarding `Brc1c(Br)c(Br)c2n[nH]nc2c1Br`, the IC50 (usually the midpoint of a concentration-inhibition curve) is 69.9 µM.

Source of the values: PubChem BioAssay AID1671212.
